Laboratory results: patent publication US11299515B2, “Optimized peptides for targeting human nerves and their use in image guided surgery, diagnostics and therapeutic” (The Regents of the University of California, priority 2017, dated 2022)
Entries after “also recorded” stand apart in the source; their conditions may differ. Residues, ends and D or L forms follow the SMILES beside them. *: point of attachment. Fluorescein(5-Mal) = O=C1OC2(c3ccc(O)cc3Oc3cc(O)ccc32)c2ccc(N3C(=O)CC(*)C3=O)cc21

Tests used:
mouse facial nerve = assay: Topical application on ex-vivo mouse facial nerve with surrounding muscle; assay type: binding; conditions: 375 and 100 μM topical
in vivo = conditions: male, SKH, mouse, whole blood, iv, 100 nmol
Protocol: Five 8-week-old SKH male mice were injected intravenously with 100 nmol [10.75 mg/kg for 25 gm mouse] of FAM-HNP401 in 100 μl of sterile water. Prior to blood draw mice were anesthetized with a 1:1 cocktail of ketamine: midazolam. Tail pricks were performed at 1 min, 10 min, 20 min, 30 min, 1 hr, and 2 hrs after injection to collect 5 μl whole blood which was dissolved in 100 μl Agilent ICP-MS tuning buffer. Samples were centrifuged and equal volume of supernatants were analyzed using a Tecan fluorescence plate reader.

[1] = Mass spectroscopy analysis of urine after injection of nerve binding peptides
[2] = system: autonomic (cavernosal) nerves from human prostate gland; assay: Topical application on autonomic nerves from human prostate gland; assay type: binding; conditions: 100 μM topical, two patients
Protocol: FAM-HNP401 and FAM-NP41 were then tested topically for binding to autonomic nerves, isolated from excised prostate glands of two human patients (FIGS. 12 and 13). […] Labelled fiber were confirmed as nerve using anti-neurofilament antibody SMI312 (red) and DAPI (blue) to show nuclear labeling (FIG. 12C). H&E staining was also done to confirm label tissue as nerve (FIG. 12D). Similar staining was obtained for peripheral sensory anti-brachial cutaneous nerve isolated from a human arm (FIGS. 12E-H).
FAM-HNP401 and FAM-NP41 were tested for binding to autonomic nerves, isolated from the prostate glands of two human patients (FIGS. 19 and 29). […] Quantitation was not done because only 2 patient samples were available for testing as nerve resection during radical prostatectomy is only performed in instances of gross capsular invasion. Labelled fibers were confirmed as nerve using anti-neurofilament antibody SMI312 (red) with DAPI (blue) to show nuclear labeling (FIG. 19C). H&E staining also confirmed label tissue as nerve by histology (FIG. 19D). […] Similar staining using FAM-HNP401 was obtained for another sensory nerve (anti-brachial cutaneous) isolated from human arm showing the broad nerve binding activity of HNP401 (FIGS. 19E-H).
Human sural nerve, antebrachial nerve and laryngeal nerve and temporalis muscle were obtained under IRB protocol number 130837 for Dr. Quyen Nguyen. […]

[3] = Stability in ex-vivo human plasma (LC-MS); conditions: 37° C., 5 min vs 2 hours
Protocol: An equal volume of 1:1 acetonitrile:water with 2% acetic acid is added to precipitate the protein matter, supernatant is extracted for analysis by LC-MS on a C18 reverse phase column with gradient of 9:1 H2O+0.05% TFA:Acetonitrile+0.05% TFA to 1:9 H2O+0.05% TFA:Acetonitrile+0.05% TFA in 20 min.
The bladder was drained with a syringe and sutured to avoid spillage and contamination around prostate. […] Stability of FAM-HNP401 in human plasma at 5 minutes and 2 hours was determined by incubation of peptide dye conjugate in human serum prior to analysis by mass spectrometry.

human laryngeal nerve = assay: Dose response by topical application on human laryngeal nerve sections; assay type: binding
Protocol: FIG. 25: Differential binding of nerve binding peptides to human and mouse tissue. Determination of optimal dose response by topical application of FAM-HNP401 on human laryngeal nerve sections at final concentration of 375 μM (A), 100 μM (B), 50 μM (C), 10 μM (D) and 1 μM (E), imaged with confocal microscopy with identical parameters and levelled equally for comparison. ** brightened 2 fold for viewing. Nerve to muscle contrast at high concentration of 375 μM for FAM-NP41 (F and G) and FAM-HNP401 (H and I) imaged on confocal microscopy and levelled for direct comparison. Mouse facial nerve (red arrows) with surrounding muscle treated with 375 μM (J), 100 μM (K) of FAM-NP41 or 375 μM (L), 100 μM (M) of FAMHNP401.
Dose response data set of FAM-HNP401 on human nerve tissue (FIG. 25:A-E) was acquired with 488 nm laser line, 10μm sections on glass at 10× magnification, 0.45 NA air objective lens. Gain set to 40, power set to 3% of laser power, pixel dwell value of 1.2 μs, aperture size of 1.1 μm and a pixel size of 0.3 μm/px with a 2 k by 2 k size image.
Human sural nerve, antebrachial nerve and laryngeal nerve and temporalis muscle were obtained under IRB protocol number 130837 for Dr. Quyen Nguyen. Human peripheral nerves (typically sural) were obtained from patients undergoing nerve resection procedures. […]

human sural nerve = assay: Topical application of FAM-labelled peptides on human nerve sections; assay type: binding
From the text: To determine the affinity of phage selected peptides for binding to human nerve they were chemically synthesized by solid-phase synthesis and labeled with fluorescein at the C-terminus via a GGC linker. Peptides were topically applied to sectioned human sural nerve and human temporalis muscle to determine nerve to muscle contrast. […] To confirm binding and contrast of HNP401 for additional nerve types binding was compared in nerve and muscle with both HNP401 and NP41 on facial brachial plexus nerve (FIG. 9). […] FAM-HNP401 was additionally tested topically on ex-vivo tissue for labeling of mouse facial nerve with surrounding muscle (FIG. 10, J-M).
To test the affinity of selected phage display peptides for binding to human nerves, they were chemically synthesized by solid-phase synthesis and labeled with fluorescein at the C-terminus. Peptides were topically applied to sections of surgically harvested human sural nerve and temporalis muscle to determine nerve to muscle contrast for selected peptides and controls (FIG. 23). […] To quantify differential binding to nerve versus muscle, fluorescence signal intensity was measured for ROIs from the perineurium of select nerves and human temporalis muscle.
Human sural nerve, antebrachial nerve and laryngeal nerve and temporalis muscle were obtained under IRB protocol number 130837 for Dr. Quyen Nguyen. Human peripheral nerves (typically sural) were obtained from patients undergoing nerve resection procedures. Human nerves from prostate gland of two patients were acquired under Moores Cancer Centre Biorepository IRB protocol number 090401. Tissue were sectioned and mounted on glass slides or Cryojane tape. Tissue sections were placed in a humidifier chamber for 30 min before application of the peptide solution. Peptides were diluted to appropriate concentration in 0.5×HBSS prior to topical application. 50 μl of peptide solution of with known concentration (1 μM to 375 μM) were applied to 10 μm nerve sections on tape or slides and incubated for 30 minutes in a humidifier chamber. After incubation with peptide nerve sections were washed with twice with 0.5×HBSS and once with 1×PBS. A cover-slip was applied and slides were imaged immediately on either a Zeiss Lumar dissecting scope of Nikon A1 confocal microscope. For confocal imaging tissue sections of 10 μm thickness were imaged with 488 nm laser excitation 515 (25) and a 10× air objective and a […] size. For immunohistochemistry the confocal Images were acquired with a 20× air objective at 0.4 μm/pixel.
Image J was used to analyze and compare images acquired using the confocal microscope and the Lumar dissecting scope. For each experimental set where probes were compared, we kept the acquisition parameters identical so as to directly compare the data obtained. […] All raw image files for a given experimental cohort were loaded at the same time into Image J as 16-bit tiff images. We then levelled the image for tissue treated with FAM-HNP401. Once these levels were set, the settings are propagated to all images in one step using Image J. The brightest image is set as the benchmark for all other images in the cohort to avoid saturating when the leveling is propagated.

SMILES: CC(=O)N[C@@H](CO)C(=O)NCC(=O)N[C@@H](CCC(N)=O)C(=O)N[C@H](C(=O)N1CCC[C@H]1C(=O)N[C@@H](Cc1c[nH]c2ccccc12)C(=O)N[C@@H](CCC(=O)O)C(=O)N[C@@H](CCC(=O)O)C(=O)N1CCC[C@H]1C(=O)N[C@@H](Cc1ccc(O)cc1)C(=O)N[C@@H](Cc1ccc(O)cc1)C(=O)N[C@H](C(=O)N[C@H](C(=O)N[C@@H](CCCCN)C(=O)N[C@@H](CCCCN)C(=O)N[C@@H](CO)C(=O)N[C@@H](CO)C(=O)NCC(=O)NCC(=O)N[C@@H](CSC1CC(=O)N(c2ccc3c(c2)C(=O)OC32c3ccc(O)cc3Oc3cc(O)ccc32)C1=O)C(N)=O)C(C)C)C(C)C)C(C)C (stereo partly drawn) [FAM-HNP401] (Ac-SGQVPWEEPYYVVKKSSGGC(Fluorescein(5-Mal))-NH2; N-terminus and C-terminus assumed)
- labeling of mouse facial nerve versus surrounding muscle (mouse facial nerve): poor contrast; also recorded: did not perform as well as FAM-NP41
- half-life (in vivo): 30 min
- metabolism (species detected in urine) [1]: partially metabolized
- fluorescent signal in human autonomic nerves compared to FAM-NP41 [2]: significantly higher fluorescent signal
- stability in human plasma [3]: remain intact at 2 hours; also recorded: stable
- concentration giving optimal nerve contrast (human laryngeal nerve; topical 1 to 375 μM): 50 to 100 µM
- concentration at which signal from human nerve saturates (human laryngeal nerve; topical up to 375 μM): ≤ 100 µM
- fluorescent signal intensity compared to FAM-NP41 (human sural nerve; 100 μM topical, human sural nerve): 10.9 ×
- fluorescent signal intensity (ROIs of perineurium) (human sural nerve; 100 μM topical, n=4): 1374.44±425.96
- binding / contrast among peptides and controls screened on human nerve (human sural nerve; 100 μM topical, sural nerve and temporalis muscle): highest contrast
- Nerve to muscle contrast (human sural nerve; human sural nerve vs human temporalis muscle, 100 μM topical, n=4): 3.03±0.57
- signal for binding human nerve compared to FAM-NP41 (human sural nerve; topical, human nerve): 10 fold
